Assay results from ChEMBL document CHEMBL5375956, “Discovery of Pyrazolo[1,5-a]pyrimidine Derivative as a Novel and Selective ALKBH5 Inhibitor for the Treatment of AML” (J Med Chem, 2023).
Active and inactive are the calls of the source. The rule behind the calls is not given here.

Key:
[1] = Toxicity in nude mouse xenografted with human MV4-11 cells assessed as spleen damage at 10 to 40 mg/kg, ip treated every day for 14 days by H and E staining based analysis; assay type: organism-based; conditions: in vivo, 336 h, dose 10-40 mg/kg, time 14 day
[2] = Toxicity in nude mouse xenografted with human MV4-11 cells assessed as spleen weight change at 10 to 40 mg/kg, ip treated every day for 14 days; assay type: organism-based; conditions: in vivo, 336 h, dose 10-40 mg/kg, time 14 day
[3] = Metabolic stability in rat liver microsomes assessed as half life measured upto 240 mins by LC-MS/MS analysis; assay type: ADME, Microsome
[4] = Apparent oral clearance in Sprague-Dawley rat at 10 mg/kg, po measured for 1 to 1440 mins by LC-MS/MS analysis; assay type: ADME, organism-based; conditions: in vivo, time 1-1440 min
[5] = tested on: MOLM-13; experiment: Induction of apoptosis in human MOLM-13 cells assessed as necrotic cells at 10 uM incubated for 48 hrs by Annexin V-FITC/PI staining based flow cytometry (reference value: 1.00 %); assay type: functional
[6] = tested on: MOLM-13; experiment: Downregulation of TACC3 mRNA level in human MOLM-13 cells at 5 to 10 uM incubated for 48 hrs by qRT-PCR analysis; assay type: functional, cell-based; conditions: dose 5-10 µM
[7] = Metabolic stability in rat liver microsomes assessed as clearance measured upto 240 mins by LC-MS/MS analysis; assay type: ADME, Microsome; conditions: read-out: CLH
[8] = target: T1, RNA demethylase ALKBH5 (Homo sapiens, UniProt Q6P6C2); experiment: Inhibition of ALKBH5 (66 to 292 residues)(unknown origin) expressed in Escherichia coli BL21(DE3) using 5'-ATTGTCA(m6A)CAGCAGA-FAM-3' as substrate incubated for 30 mins in presence of 0.2 uM of 2-OG by FP based competitive binding assay
Target sequence in this assay (Q6P6C2 whole entry, the tested form may be a part): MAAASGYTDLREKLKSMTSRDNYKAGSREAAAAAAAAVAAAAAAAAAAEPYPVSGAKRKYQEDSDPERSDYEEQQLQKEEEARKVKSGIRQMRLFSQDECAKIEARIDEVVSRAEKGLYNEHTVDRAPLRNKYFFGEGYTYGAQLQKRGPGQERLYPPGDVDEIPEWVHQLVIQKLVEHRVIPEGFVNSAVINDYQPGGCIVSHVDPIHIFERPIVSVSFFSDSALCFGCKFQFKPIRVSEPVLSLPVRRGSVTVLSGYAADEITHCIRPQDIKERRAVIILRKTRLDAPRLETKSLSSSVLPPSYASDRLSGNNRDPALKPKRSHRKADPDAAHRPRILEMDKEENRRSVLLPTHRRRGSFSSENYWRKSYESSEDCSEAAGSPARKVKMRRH

[9] = Toxicity in nude mouse xenografted with human MV4-11 cells assessed as kidney damage at 10 to 40 mg/kg, ip treated every day for 14 days by H and E staining based analysis; assay type: organism-based; conditions: in vivo, 336 h, dose 10-40 mg/kg, time 14 day
[10] = tested on: MV4-11; experiment: Induction of apoptosis in human MV4-11 cells assessed as early apoptosis cells at 5 uM incubated for 48 hrs by Annexin V-FITC/PI staining based flow cytometry (reference value: 1.24 %); assay type: functional
[11] = Metabolic stability in rat plasma assessed as half life measured upto 240 mins by LC-MS/MS analysis; assay type: ADME, cell-free
[12] = tested on: HEK293; experiment: Effect on TACC3 mRNA level in HEK293 cells at 5 to 10 uM incubated for 48 hrs by qRT-PCR analysis; assay type: functional, cell-based; conditions: Homo sapiens, dose 5-10 µM
[13] = tested on: MOLM-13; experiment: Induction of apoptosis in human MOLM-13 cells assessed as late apoptosis cells at 5 uM incubated for 48 hrs by Annexin V-FITC/PI staining based flow cytometry (reference value: 6.49 %); assay type: functional
[14] = tested on: MV4-11; experiment: Antitumor activity against human MV4-11 cells xenografted in nude mouse assessed as reduction in tumor weight at 10 to 40 mg/kg, ip treated every day for 14 days; assay type: functional, organism-based; conditions: dose 10-40 mg/kg, time 14.0 day
[15] = tested on: MOLM-13; experiment: Induction of apoptosis in human MOLM-13 cells assessed as early apoptosis cells at 5 uM incubated for 48 hrs by Annexin V-FITC/PI staining based flow cytometry (reference value: 2.72 %); assay type: functional
[16] = tested on: MOLM-13; experiment: Induction of apoptosis in human MOLM-13 cells assessed as necrotic cells at 5 uM incubated for 48 hrs by Annexin V-FITC/PI staining based flow cytometry (reference value: 1.00 %); assay type: functional
[17] = tested on: MOLM-13; experiment: Induction of apoptosis in human MOLM-13 cells assessed as viable cells at 5 uM incubated for 48 hrs by Annexin V-FITC/PI staining based flow cytometry (reference value: 89.8 %); assay type: functional; conditions: read-out: Activity
[18] = MRT in Sprague-Dawley rat at 10 mg/kg, po measured for 1 to 1440 mins by LC-MS/MS analysis; assay type: ADME, organism-based; conditions: in vivo, time 1-1440 min
[19] = tested on: MV4-11; experiment: Downregulation of TACC3 mRNA level in human MV4-11 cells at 5 to 10 uM incubated for 48 hrs by qRT-PCR analysis; assay type: functional, cell-based; conditions: dose 5-10 µM
[20] = target: T1, RNA demethylase ALKBH5; experiment: Binding affinity to ALKBH5 in human MOLM-13 cells assessed as thermal shift heating at 200 uM incubated for 30 mins followed by heating at 45 to 67 degreeC measured for 3 mins by CETSA assay; assay type: cell-based
Target sequence in this assay (Q6P6C2 2-394 limits assumed): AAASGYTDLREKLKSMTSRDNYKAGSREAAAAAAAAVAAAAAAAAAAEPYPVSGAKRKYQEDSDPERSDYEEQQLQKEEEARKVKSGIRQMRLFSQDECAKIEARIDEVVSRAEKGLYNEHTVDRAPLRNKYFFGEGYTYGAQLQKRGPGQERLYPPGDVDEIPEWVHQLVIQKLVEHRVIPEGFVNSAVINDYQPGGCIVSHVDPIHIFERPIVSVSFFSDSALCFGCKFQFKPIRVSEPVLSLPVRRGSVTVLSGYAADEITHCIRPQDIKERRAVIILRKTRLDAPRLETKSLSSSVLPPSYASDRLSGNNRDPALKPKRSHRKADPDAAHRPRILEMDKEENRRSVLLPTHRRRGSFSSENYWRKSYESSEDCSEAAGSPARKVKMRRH

[21] = Half life in Sprague-Dawley rat at 2 mg/kg, iv measured for 1 to 1440 mins by LC-MS/MS analysis; assay type: ADME, organism-based; conditions: in vivo, time 1-1440 min
[22] = tested on: HUVEC; experiment: Effect on TACC3 level in HUVEC cells upto 10 uM incubated for 48 hrs by Western blot analysis; assay type: functional, cell-based; conditions: Homo sapiens
[23] = Cmax in Sprague-Dawley rat at 10 mg/kg, po measured for 1 to 1440 mins by LC-MS/MS analysis; assay type: ADME, organism-based; conditions: in vivo
[24] = Apparent volume of distribution during terminal phase in Sprague-Dawley rat at 2 mg/kg, iv measured for 1 to 1440 mins by LC-MS/MS analysis; assay type: ADME, organism-based; conditions: in vivo, time 1-1440 min
[25] = Metabolic stability in human liver microsomes assessed as clearance measured upto 240 mins by LC-MS/MS analysis; assay type: ADME, Microsome; conditions: read-out: CLH
[26] = tested on: HEK293; experiment: Effect on c-Myc mRNA level in HEK293 cells at 5 to 10 uM incubated for 48 hrs by qRT-PCR analysis; assay type: functional, cell-based; conditions: Homo sapiens, dose 5-10 µM
[27] = target: T1, RNA demethylase ALKBH5; experiment: Inhibition of ALKBH5 (66 to 292 residues)(unknown origin) expressed in Escherichia coli BL21(DE3) using 5'-TAGACATTGCCATTCTCGATAGG(m6A)-TCCGGTCAAACCTAGACGAATTCCA-3' as substrate upto 100 uM incubated for 2 hrs in presence of 2-OG by restriction endonuclease digestion assay
Target sequence in this assay (Q6P6C2 2-394 limits assumed): as the sequence (Q6P6C2 2-394 limits assumed) above

[28] = Metabolic stability in human plasma assessed as half life measured upto 240 mins by LC-MS/MS analysis; assay type: ADME, cell-free
[29] = tested on: MV4-11; experiment: Induction of apoptosis in human MV4-11 cells assessed as late apoptosis cells at 5 uM incubated for 48 hrs by Annexin V-FITC/PI staining based flow cytometry (reference value: 7.17 %); assay type: functional
[30] = target: T1, RNA demethylase ALKBH5; experiment: Inhibition of ALKBH5 (66 to 292 residues)(unknown origin) expressed in Escherichia coli BL21(DE3) using 5'-ATTGTCA(m6A)CAGCAGA-FAM-3' as substrate incubated for 30 mins in presence of 20 uM of 2-OG by FP based competitive binding assay
Target sequence in this assay (Q6P6C2 whole entry, the tested form may be a part): as the sequence (Q6P6C2 whole entry, the tested form may be a part) above

[31] = tested on: MOLM-13; experiment: Antiproliferative activity against human MOLM-13 cells assessed as inhibition of cell proliferation incubated for 72 hrs by Cell Titer Luminescence assay; assay type: functional, cell-based; conditions: MOLM-13, 72 h
[32] = target: RNA demethylase ALKBH5 (Homo sapiens, UniProt Q6P6C2, K132A); experiment: Binding affinity to NT-647-NHS fluorescent dye-labeled ALKBH5 K132A mutant (unknown origin) expressed in Escherichia coli BL21(DE3) using m6A-ssDNA as substrate assessed as dissociation constant incubated for 15 mins by MST assay
Sequence of RNA demethylase ALKBH5 (Homo sapiens, UniProt Q6P6C2, K132A) (Q6P6C2 2-394 K132A limits assumed): as the sequence (Q6P6C2 2-394 limits assumed) above, with K131A counted along it

[33] = target: T1, RNA demethylase ALKBH5; experiment: Inhibition of ALKBH5 in human MV4-11 cells assessed as increase in m6A mRNA methylation level at 20 uM incubated for 48 hrs by LC-MS/MS analysis; assay type: cell-based
Target sequence in this assay (Q6P6C2 2-394 limits assumed): as the sequence (Q6P6C2 2-394 limits assumed) above

[34] = tested on: MV4-11; experiment: Induction of apoptosis in human MV4-11 cells assessed as necrotic cells at 5 uM incubated for 48 hrs by Annexin V-FITC/PI staining based flow cytometry (reference value: 1.81 %); assay type: functional

half-life [3]: 0.23 h | CL/F [4]: 1.73 L/h/kg | microsomal CLint [7]: 100 µL/min/mg | IC50 [8]: 4.89 µM | half-life [11]: 4.18 h | MRT [18]: 2.8 h | Activity [20]: Active | half-life [21]: 0.612 h | Cmax [23]: 2.34 µg/mL | Vz/F [24]: 0.2636 L/kg | microsomal CLint [25]: 3.2 µL/min/mg | inhibition [27]: Active | half-life [28]: 10.4 h | IC50 [30]: 4.32 µM | IC50 [31]: 0.45 µM | Kd [32]: 53 µM | inhibition [33]: Active
Structure (SMILES): O=C(OCc1ccc(C(F)(F)F)cc1)c1ccc(-c2cc3ncc(C(=O)c4c(O)ccc([N+](=O)[O-])c4O)cn3n2)cc1
Activity [1]: Non-Toxic | Activity [2]: Non-Toxic | Activity [5]: 4.14% | Activity [6]: Active | Activity [9]: Non-Toxic | Activity [10]: 1.44% | Activity [12]: inactive | Activity [13]: 16.5% | Activity [14]: Active | Activity [15]: 2.91% | Activity [16]: 3.37% | viability at 5 µM [17]: 77.2% | Activity [19]: Active | Activity [22]: inactive | Activity [26]: inactive | Activity [29]: 36% | Activity [34]: 3.62%
